Holding throughout (format): cell-based
In one assay the target is T1, human TLR7 (Homo sapiens, UniProt Q9NYK1).
T1 construct: host or cells: HEK-Blue cells (HEK293-derived reporter line)
T1 sequence (Q9NYK1 27-1049): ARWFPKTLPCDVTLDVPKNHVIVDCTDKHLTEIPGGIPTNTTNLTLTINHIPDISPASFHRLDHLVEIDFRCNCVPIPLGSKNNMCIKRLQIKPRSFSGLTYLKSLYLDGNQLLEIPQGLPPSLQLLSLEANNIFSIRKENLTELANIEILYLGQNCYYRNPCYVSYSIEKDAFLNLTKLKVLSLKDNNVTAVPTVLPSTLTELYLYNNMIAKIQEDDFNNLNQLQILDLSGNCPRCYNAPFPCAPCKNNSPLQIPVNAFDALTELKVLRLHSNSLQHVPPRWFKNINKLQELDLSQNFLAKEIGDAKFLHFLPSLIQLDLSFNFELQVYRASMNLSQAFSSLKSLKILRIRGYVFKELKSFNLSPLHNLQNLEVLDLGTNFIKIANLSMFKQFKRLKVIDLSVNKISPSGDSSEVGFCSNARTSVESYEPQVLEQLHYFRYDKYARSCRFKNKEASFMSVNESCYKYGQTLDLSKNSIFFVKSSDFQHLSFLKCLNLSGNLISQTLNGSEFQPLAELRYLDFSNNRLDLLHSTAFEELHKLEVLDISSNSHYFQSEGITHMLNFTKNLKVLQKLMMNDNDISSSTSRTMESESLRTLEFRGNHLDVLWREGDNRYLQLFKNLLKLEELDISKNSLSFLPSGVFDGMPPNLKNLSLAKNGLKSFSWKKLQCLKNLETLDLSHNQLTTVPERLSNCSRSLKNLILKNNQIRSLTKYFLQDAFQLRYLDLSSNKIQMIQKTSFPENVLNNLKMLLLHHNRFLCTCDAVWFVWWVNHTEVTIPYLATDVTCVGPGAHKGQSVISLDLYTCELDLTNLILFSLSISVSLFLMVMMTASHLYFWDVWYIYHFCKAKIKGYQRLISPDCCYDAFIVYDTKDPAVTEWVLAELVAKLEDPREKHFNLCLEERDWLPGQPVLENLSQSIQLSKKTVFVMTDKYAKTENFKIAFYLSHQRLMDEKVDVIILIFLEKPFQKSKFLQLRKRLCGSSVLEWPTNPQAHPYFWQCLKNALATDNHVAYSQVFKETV
The assay is described as follows: TLR7 inhibition reporter assay (HEK-Blue cells, SEAP reporter, gardiquimod stimulation). As to conditions: HEK-Blue cells overexpressing human TLR7, SEAP reporter, gardiquimod 7.5 μM. In outline: (§1)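 Cells seeded per well (15000 TLR7, 20,000 TLR8, 25,000 TLR9); compound added over 0.05 nM–50 μM for 30 min at room temperature; agonist added (TLR7 gardiquimod 7.5 μM, TLR8 R848 15.9 μM, TLR9 ODN2006 5 nM); 22 h at 37 °C; SEAP measured; percent inhibition calculated.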
(Reporter assays use an easily measured gene product as a stand-in for the process of interest.)

For a further assay, the target named is T2, human TLR9 (Homo sapiens, UniProt Q9NR96).
T2 construct: host or cells: HEK-Blue cells (HEK293-derived reporter line)
T2 sequence (Q9NR96 26-1032): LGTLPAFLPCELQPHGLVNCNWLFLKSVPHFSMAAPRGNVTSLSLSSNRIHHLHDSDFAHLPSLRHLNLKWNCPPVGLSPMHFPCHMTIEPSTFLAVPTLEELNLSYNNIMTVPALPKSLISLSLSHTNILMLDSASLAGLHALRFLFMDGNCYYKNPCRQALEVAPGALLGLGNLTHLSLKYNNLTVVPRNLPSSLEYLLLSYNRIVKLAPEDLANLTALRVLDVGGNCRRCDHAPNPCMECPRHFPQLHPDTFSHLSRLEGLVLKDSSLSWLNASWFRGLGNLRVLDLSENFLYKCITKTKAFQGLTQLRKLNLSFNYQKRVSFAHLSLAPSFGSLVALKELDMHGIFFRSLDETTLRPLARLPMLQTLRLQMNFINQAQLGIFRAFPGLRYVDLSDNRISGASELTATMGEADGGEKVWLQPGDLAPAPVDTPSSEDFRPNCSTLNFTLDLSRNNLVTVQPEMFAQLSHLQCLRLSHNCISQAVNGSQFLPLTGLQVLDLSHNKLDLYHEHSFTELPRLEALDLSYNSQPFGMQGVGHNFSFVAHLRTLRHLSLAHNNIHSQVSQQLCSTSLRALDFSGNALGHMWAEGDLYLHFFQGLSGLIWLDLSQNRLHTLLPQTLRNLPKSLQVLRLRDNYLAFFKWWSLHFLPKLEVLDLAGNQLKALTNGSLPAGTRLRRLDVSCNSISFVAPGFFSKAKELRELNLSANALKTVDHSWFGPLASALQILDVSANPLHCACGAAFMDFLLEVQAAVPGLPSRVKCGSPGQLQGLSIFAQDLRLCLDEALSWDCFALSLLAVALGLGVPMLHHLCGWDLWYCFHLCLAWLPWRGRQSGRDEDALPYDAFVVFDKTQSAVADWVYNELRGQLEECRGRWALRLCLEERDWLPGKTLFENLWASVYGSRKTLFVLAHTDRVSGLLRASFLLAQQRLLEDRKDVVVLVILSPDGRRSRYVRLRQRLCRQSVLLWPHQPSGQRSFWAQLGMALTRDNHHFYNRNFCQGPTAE
The assay is described as follows: TLR9 inhibition reporter assay (HEK-Blue cells, SEAP reporter, ODN2006 stimulation). As to conditions: HEK-Blue cells overexpressing human TLR9, SEAP reporter, ODN2006 5 nM. In outline: as §1

A further assay deals with T3, human TLR8 (Homo sapiens, UniProt Q9NR97).
T3 construct: host or cells: HEK-Blue cells (HEK293-derived reporter line)
T3 sequence (Q9NR97 27-1041): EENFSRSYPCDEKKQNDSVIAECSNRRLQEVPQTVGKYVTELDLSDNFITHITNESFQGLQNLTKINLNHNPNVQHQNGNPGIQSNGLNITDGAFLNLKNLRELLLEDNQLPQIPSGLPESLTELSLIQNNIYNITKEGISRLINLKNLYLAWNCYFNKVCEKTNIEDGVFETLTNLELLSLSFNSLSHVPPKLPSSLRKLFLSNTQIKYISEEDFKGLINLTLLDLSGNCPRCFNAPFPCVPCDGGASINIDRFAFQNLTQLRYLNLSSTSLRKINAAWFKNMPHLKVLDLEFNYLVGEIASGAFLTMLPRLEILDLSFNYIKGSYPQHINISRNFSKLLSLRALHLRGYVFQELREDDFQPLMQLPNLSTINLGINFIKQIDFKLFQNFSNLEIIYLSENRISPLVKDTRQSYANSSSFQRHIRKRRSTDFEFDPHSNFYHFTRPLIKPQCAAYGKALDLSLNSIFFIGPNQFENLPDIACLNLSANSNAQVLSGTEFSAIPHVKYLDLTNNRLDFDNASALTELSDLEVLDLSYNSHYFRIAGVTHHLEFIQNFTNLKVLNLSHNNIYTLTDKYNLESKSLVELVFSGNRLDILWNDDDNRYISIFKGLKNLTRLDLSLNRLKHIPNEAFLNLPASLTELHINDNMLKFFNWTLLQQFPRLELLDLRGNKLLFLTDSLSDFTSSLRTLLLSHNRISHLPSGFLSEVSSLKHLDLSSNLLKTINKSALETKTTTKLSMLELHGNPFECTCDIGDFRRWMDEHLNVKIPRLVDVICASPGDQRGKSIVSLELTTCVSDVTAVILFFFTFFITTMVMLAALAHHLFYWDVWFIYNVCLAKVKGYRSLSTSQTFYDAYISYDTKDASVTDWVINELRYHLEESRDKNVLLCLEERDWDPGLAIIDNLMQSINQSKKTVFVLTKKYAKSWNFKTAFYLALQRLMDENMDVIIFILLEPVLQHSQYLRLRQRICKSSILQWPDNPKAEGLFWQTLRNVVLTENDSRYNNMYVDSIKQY
In words: TLR8 inhibition reporter assay (HEK-Blue cells, SEAP reporter, R848 stimulation). As to conditions: HEK-Blue cells overexpressing human TLR8, SEAP reporter, R848 15.9 μM. In outline: as §1

A value given as a limit tells only on which side of the number the result lay.

A word on the IC50: it is the concentration that gives 50% inhibition. For the compound `Cc1nnn2ccc(-c3[nH]c4ccc(C5CCN(Cc6ccn(C)n6)CC5)cc4c3C(C)C)cc12` [Example 888, 5-(3-isopropyl-5-(1-((1-methyl-1H-pyrazol-3-yl)methyl)piperidin-4-yl)-1H-indol-2-yl)-3-methyl-[1,2,3]triazolo[1,5-a]pyridine], the figures for the IC50 against human TLR7, against human TLR9 and on human TLR8 were under 100 nM, 1000 to 50000 nM and under 100 nM, respectively.

For `Cc1c[nH]c2nccc(-c3[nH]c4ccc(C5CCNCC5)cc4c3C(C)C)c12` [Example 215, 4-(3-isopropyl-5-(piperidin-4-yl)-1H-indol-2-yl)-3-methyl-1H-pyrrolo[2,3-b]pyridine], the IC50 was 100 to 1000 nM against human TLR7, 1000 to 50000 nM against human TLR9 and 100 to 1000 nM on human TLR8.

With `CNCCN1CCC(c2ccc3[nH]c(-c4ccc5ncccc5c4)c(C)c3c2)CC1` [Example 666, N-methyl-2-(4-(3-methyl-2-(quinolin-6-yl)-1H-indol-5-yl)piperidin-1-yl)ethan-1-amine], the IC50 against human TLR7 is 1000 to 50000 nM; against human TLR9, 100 to 1000 nM; against human TLR8, over 3130 nM.

With `CC(C)c1c(-c2ccnc3[nH]ncc23)[nH]c2ccc(C3CCN(Cc4ncc[nH]4)CC3)cc12` [Example 914, 4-(5-(1-((1H-imidazol-2-yl)methyl)piperidin-4-yl)-3-isopropyl-1H-indol-2-yl)-1H-pyrazolo[3,4-b]pyridine], the results for the IC50 at human TLR7, against human TLR9 and on human TLR8 were under 100 nM, 1000 to 50000 nM and under 100 nM, respectively.

Turning to `CC(C)c1c(-c2ccnc3[nH]ncc23)[nH]c2ccc(C3CCN(Cc4ccc(Oc5ncccn5)cc4)CC3)cc12` [Example 899, 4-(3-isopropyl-5-(1-(4-(pyrimidin-2-yloxy)benzyl)piperidin-4-yl)-1H-indol-2-yl)-1H-pyrazolo[3,4-b]pyridine], the IC50 is under 100 nM against human TLR7, 100 to 1000 nM against human TLR9 and under 100 nM against human TLR8.

Take `CC(C)c1c(-c2cn3ccnc3cc2Cl)[nH]c2ccc(C3CCNCC3)cc12` [Example 128, 7-chloro-6-(3-isopropyl-5-(piperidin-4-yl)-1H-indol-2-yl)imidazo[1,2-a]pyridine]: the concentration for half-maximal inhibition (IC50) at human TLR7 is under 100 nM; on human TLR9, 1000 to 50000 nM; against human TLR8, under 100 nM.

Take `CC(C)c1c(-c2cnc3nccn3c2)[nH]c2ccc(C3CCN(CC(=O)N(C)C)CC3)cc12` [Example 363, 2-(4-(2-(imidazo[1,2-a]pyrimidin-6-yl)-3-isopropyl-1H-indol-5-yl)piperidin-1-yl)-N,N-dimethylacetamide]: the IC50 against human TLR7, at human TLR9 and on human TLR8 was 100 to 1000 nM each time.

For the compound `CC(C)c1c(-c2cc(F)c3nccn3c2)[nH]c2ccc(C3CCN(C(=O)C[C@H](C)O)CC3)cc12` [Example 604, (S)-1-(4-(2-(8-fluoroimidazo[1,2-a]pyridin-6-yl)-3-isopropyl-1H-indol-5-yl)piperidin-1-yl)-3-hydroxybutan-1-one], the figures for the IC50 against human TLR7, at human TLR9 and against human TLR8 were under 100 nM, over 50000 nM and 1000 to 50000 nM, respectively.

As to `Cc1cc(-c2[nH]c3ccc(C4CCN(C(=O)CCN(C)C)CC4)cc3c2C(C)C)cn2nnnc12` [Example 620, 3-(dimethylamino)-1-(4-(3-isopropyl-2-(8-methyltetrazolo[1,5-a]pyridin-6-yl)-1H-indol-5-yl)piperidin-1-yl)propan-1-one], the IC50 at human TLR7 is under 100 nM; against human TLR9, 1000 to 50000 nM; on human TLR8, under 100 nM.

For the compound `CC(C)c1c(-c2ccnc3[nH]ncc23)[nH]c2ccc(C3CCN(C4CCNCC4F)CC3)cc12` (stereo not drawn) [Example 827, 4-(5-(3′-fluoro-[1,4′-bipiperidin]-4-yl)-3-isopropyl-1H-indol-2-yl)-1H-pyrazolo[3,4-b]pyridine], the values for the 50% inhibitory concentration (IC50) against human TLR7, against human TLR9 and on human TLR8 were under 100 nM, 100 to 1000 nM and under 100 nM, respectively.
